Experimental data as given in US12139487B2, “Compounds and uses thereof” (Foghorn Therapeutics Inc., priority 2022, dated 2024).

Tests used:
BRM = target: T1, BRM (Homo sapiens, UniProt P51531); test: ATPase catalytic activity assay (ADP-Glo), BRM; assay type: biochemical; settings: Table 10; for Ratio (BRG1 IC50 (μM) divided by BRM IC50 (μM)): ATPase assay, selectivity BRG1/BRM; for IC50: ATPase catalytic activity assay (ADP-Glo)
T1 construct: made in house; host or cells: High Five insect cells
Method in brief: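 Reaction holds 30 nM BRM, 20 nM salmon sperm DNA and 400 μM ATP in 20 mM Tris pH 8, 20 mM MgCl2, 50 mM NaCl, 0.1% Tween-20, 1 mM DTT. Incubated 1 h at room temperature. ADP formed is detected by ADP-Glo luminescence.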

BRG-1 = target: T2, BRG-1 (Homo sapiens, UniProt P51532); test: ATPase catalytic activity assay (ADP-Glo), BRG-1; assay type: biochemical; settings: Table 10, read-out: BRG1 IC50
T2 construct: made in house; host or cells: High Five insect cells
Method in brief: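 BRG-1 ATPase activity was measured by ADP-Glo. Unconsumed ATP was depleted for 40 min at room temperature, then ADP was converted to ATP for 60 min and read as luminescence.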

T1 sequence (P51531 whole entry): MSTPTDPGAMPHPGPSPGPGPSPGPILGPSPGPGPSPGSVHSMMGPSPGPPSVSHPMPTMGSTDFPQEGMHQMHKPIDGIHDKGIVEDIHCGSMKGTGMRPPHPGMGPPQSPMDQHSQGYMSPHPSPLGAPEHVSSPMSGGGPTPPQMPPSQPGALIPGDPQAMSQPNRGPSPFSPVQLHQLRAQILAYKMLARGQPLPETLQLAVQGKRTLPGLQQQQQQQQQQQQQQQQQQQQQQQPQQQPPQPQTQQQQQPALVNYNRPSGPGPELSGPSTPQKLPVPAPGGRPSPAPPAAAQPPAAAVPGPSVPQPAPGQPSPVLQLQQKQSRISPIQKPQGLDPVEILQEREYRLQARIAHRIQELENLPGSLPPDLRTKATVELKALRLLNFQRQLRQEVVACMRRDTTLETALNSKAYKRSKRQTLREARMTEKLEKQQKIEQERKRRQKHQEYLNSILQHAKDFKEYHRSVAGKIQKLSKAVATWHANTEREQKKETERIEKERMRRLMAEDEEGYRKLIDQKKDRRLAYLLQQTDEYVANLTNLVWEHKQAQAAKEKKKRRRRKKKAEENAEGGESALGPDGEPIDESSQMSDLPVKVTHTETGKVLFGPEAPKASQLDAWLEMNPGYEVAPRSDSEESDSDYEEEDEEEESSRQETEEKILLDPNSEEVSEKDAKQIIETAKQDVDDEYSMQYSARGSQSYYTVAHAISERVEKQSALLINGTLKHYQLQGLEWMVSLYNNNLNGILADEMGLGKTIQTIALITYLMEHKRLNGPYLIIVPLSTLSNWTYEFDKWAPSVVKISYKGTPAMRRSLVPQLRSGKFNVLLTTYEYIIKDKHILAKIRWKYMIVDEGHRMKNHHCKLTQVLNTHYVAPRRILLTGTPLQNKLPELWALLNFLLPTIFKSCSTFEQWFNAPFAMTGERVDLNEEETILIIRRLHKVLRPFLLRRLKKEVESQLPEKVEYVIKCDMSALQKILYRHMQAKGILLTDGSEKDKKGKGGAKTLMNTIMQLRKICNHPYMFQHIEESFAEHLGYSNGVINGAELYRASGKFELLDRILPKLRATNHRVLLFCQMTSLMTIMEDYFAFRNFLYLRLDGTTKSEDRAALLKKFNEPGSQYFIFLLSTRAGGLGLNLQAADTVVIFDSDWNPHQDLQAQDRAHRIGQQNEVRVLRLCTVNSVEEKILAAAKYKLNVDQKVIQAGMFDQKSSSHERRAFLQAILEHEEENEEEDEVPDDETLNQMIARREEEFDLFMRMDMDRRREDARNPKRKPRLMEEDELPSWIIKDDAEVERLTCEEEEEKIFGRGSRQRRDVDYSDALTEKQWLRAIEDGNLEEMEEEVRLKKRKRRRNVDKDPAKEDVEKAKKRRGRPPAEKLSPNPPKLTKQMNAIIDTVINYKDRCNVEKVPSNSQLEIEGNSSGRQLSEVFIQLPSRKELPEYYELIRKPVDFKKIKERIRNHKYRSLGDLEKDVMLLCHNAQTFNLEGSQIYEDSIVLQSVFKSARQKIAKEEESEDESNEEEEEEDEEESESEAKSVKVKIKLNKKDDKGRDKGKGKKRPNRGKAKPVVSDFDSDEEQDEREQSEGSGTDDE
T2 sequence (P51532 whole entry): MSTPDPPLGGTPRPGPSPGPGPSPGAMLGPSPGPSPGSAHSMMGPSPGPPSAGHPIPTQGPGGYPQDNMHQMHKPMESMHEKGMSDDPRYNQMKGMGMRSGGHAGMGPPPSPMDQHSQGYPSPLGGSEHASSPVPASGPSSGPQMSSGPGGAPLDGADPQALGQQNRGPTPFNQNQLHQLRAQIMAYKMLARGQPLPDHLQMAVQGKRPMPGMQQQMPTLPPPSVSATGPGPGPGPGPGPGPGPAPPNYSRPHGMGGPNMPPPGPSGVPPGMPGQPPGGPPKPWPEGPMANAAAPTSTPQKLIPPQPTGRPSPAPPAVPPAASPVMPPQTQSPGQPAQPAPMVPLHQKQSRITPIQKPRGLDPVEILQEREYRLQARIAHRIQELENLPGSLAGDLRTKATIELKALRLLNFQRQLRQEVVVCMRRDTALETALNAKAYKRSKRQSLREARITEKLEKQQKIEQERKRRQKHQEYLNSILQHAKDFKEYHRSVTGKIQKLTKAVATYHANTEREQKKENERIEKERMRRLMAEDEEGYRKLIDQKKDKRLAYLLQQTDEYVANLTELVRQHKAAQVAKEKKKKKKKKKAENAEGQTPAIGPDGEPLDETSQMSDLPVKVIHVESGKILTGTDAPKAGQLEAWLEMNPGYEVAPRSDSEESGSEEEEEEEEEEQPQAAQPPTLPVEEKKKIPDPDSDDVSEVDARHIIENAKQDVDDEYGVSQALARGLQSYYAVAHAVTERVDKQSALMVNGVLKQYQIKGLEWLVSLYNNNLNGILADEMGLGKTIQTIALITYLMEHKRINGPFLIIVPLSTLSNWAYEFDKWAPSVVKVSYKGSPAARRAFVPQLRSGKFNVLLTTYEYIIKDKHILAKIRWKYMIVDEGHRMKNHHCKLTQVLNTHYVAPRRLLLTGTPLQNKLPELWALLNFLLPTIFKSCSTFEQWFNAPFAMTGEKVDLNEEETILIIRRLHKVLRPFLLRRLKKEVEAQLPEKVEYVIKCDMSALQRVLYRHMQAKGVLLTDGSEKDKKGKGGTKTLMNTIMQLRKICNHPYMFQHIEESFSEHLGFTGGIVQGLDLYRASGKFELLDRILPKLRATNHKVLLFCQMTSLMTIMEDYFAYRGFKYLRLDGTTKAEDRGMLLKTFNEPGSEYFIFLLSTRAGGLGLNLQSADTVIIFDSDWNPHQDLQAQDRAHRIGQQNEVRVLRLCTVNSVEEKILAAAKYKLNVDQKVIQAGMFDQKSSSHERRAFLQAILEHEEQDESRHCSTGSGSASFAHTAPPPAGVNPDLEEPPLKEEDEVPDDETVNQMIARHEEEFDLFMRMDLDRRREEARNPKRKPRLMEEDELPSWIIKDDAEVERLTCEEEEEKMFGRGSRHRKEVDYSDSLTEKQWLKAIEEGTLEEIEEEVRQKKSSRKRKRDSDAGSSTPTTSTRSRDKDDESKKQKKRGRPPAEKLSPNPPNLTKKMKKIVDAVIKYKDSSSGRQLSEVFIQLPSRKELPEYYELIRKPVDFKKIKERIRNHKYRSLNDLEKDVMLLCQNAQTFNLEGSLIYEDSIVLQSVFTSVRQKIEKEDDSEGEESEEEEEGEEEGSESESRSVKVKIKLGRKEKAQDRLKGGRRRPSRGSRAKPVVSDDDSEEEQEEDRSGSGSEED

SMILES	Ratio (BRG1 IC50 (μM) divided by BRM IC50 (μM)) (BRM)	IC50 (BRM) [nM]	IC50 (BRG-1) [nM]
O=C(NCc1cc2nc(N3CCOc4cc(N5CCC[C@H](F)C5)cnc43)ccc2cn1)c1cc(F)c2c(c1)S(=O)(=O)[C@@H](F)CCO2 [Compound 286]	20.51	9.6	196
O=C(NCc1cc2nc(N3CCOc4cc(C(F)(F)F)cnc43)ccc2cn1)c1cc(F)c2c(c1)S(=O)(=O)[C@@H](F)CCO2 [Compound 265]	11.56	8.7	101
C[C@@H]1CN(c2cccc(-c3ccc4cnc(CNC(=O)c5cc(F)c6c(c5)S(=O)(=O)[C@H](F)CO[C@@H]6C)cc4n3)n2)C[C@H](C)O1 [Compound 222]	11.79	7	79.8
[2H]C([2H])([2H])Oc1nscc1-c1ccc2cnc(CNC(=O)c3cc(F)c4c(c3)S(=O)(=O)[C@@H](F)CCO4)cc2n1 [Compound 226]	14.90	7.1	106
[2H]C1([2H])Oc2c(F)cc(C(=O)NCc3cc4nc(N5CCOc6cc(N7CC(F)C7)cnc65)ccc4cn3)cc2S(=O)(=O)[C@@]([2H])(F)C1([2H])[2H] [Compound 171]	16.27	5.5	89.1
COc1nc([C@H](C)F)ccc1-c1ccc2cnc(CNC(=O)c3cc(Cl)c4c(c3)S(=O)(=O)[C@@H](F)CCO4)cc2n1 [Compound 308]	28.69	10.4	329
COc1nc(C(F)F)ccc1-c1ccc2cnc(CNC(=O)c3cc(F)c4c(c3)S(=O)(=O)[C@@H](F)CCO4)c(F)c2n1 [Compound 136]	13.12	4.6	74.9
O=C(NCc1cc2nc(-c3cccc(N4CCC4)n3)ccc2cn1)c1cc(F)c2c(c1)S(=O)(=O)[C@@H](F)CCO2 [Compound 117]	21.61	4	87.1
O=C(NCc1cc2cc(-c3cncc(C4CCC4)n3)ccc2cn1)c1cc(F)c2c(c1)S(=O)(=O)[C@@H](F)CCO2 [Compound 283]	28.86	9.4	385
CCCc1ccnc2c1OCCN2c1ccc2cnc(CNC(=O)c3cc(F)c4c(c3)S(=O)(=O)[C@@H](F)CCO4)cc2n1 [Compound 194]	11.72	5.9	69.2
C[C@@H]1CCN1c1cnc2c(c1)OCCN2c1ccc2cnc(CNC(=O)c3cc(C(F)F)c4c(c3)S(=O)(=O)[C@@H](F)COC4)cc2n1 [Compound 175]	12.83	5.6	49.3
COc1cnc2c(c1)CCCN2c1ccc2cnc(CNC(=O)c3cc(F)c4c(c3)S(=O)(=O)[C@@H](F)CCO4)cc2c1 [Compound 305]	12.14	10.3	125
O=C(NCc1cc2nc(N3CCOc4cc(N5C[C@@H](F)[C@H](F)C5)cnc43)ccc2cn1)c1cc(F)c2c(c1)S(=O)(=O)[C@@H](F)COC2 [Compound 50]	15.78	2.5	38.7
O=C(NCc1cc2nc(N3CCOc4ccc([C@H]5C[C@H]5F)nc43)ccc2cn1)c1cc(F)c2c(c1)S(=O)(=O)[C@@H](F)COC2 [Compound 88]	21.33	3.2	88.9
O=C(NCc1cc2nc(-c3cccc(N4CCC4)n3)ccc2cn1)c1cc(F)c2c(c1)S(=O)(=O)[C@@H](F)COC2 [Compound 111]	19.81	3.9	79.1
O=C(NCc1cc2nc(-c3csnc3OC(F)F)ccc2cn1)c1cc(F)c2c(c1)S(=O)(=O)[C@@H](F)CCO2 [Compound 155]	19.80	5	88
COc1nc([C@@](C)(F)C(F)F)ccc1-c1ccc2cnc(CNC(=O)c3cc(F)c4c(c3)S(=O)(=O)[C@@H](F)COC4)cc2n1 [Compound 251]	15.83	8	126

SMILES	Ratio (BRG1 IC50 (μM) divided by BRM IC50 (μM)) (BRM)	IC50 (BRM) [nM]	IC50 (BRG-1) [nM]
O=C(NCc1cc2nc(N3CCOc4cc(N5C[C@@H](F)[C@@H](F)C5)cnc43)ccc2cn1)c1cc(F)c2c(c1)S(=O)(=O)[C@@H](F)CCO2 [Compound 124]	15.93	4.3	74.9
Cc1cc2c(-c3ccc4cnc(CNC(=O)c5cc(F)c6c(c5)S(=O)(=O)[C@@H](F)CCO6)cc4n3)cccc2n1C [Compound 161]	9.63	5.1	49.3
O=C(NCc1cc2nc(-c3ccc(OC(F)F)c(C4CC4)n3)ccc2cn1)c1cc(F)c2c(c1)S(=O)(=O)[C@@H](F)COC2 [Compound 85]	20.37	3.1	69.9
O=C(NCc1cc2nc(-c3cccc(OC(F)F)n3)ccc2cn1)c1cc(F)c2c(c1)S(=O)(=O)[C@@H](F)COC2 [Compound 205]	23.40	6.1	128
C[C@H](NC(=O)c1cc(F)c2c(c1)S(=O)(=O)[C@@H](F)COC2)c1cc2nc(N3CCOc4ccc(C(F)F)nc43)ccc2cn1 [Compound 260]	34.05	8.5	288
O=C(NCc1cc2nc(N3CCOc4cc(N5CCC(F)CC5)cnc43)ccc2cn1)c1cc(F)c2c(c1)S(=O)(=O)[C@@H](F)CCO2 [Compound 204]	11.71	6.1	71.7
O=C(NCc1cc2nc(N3CCOc4cc(C56CC(C5)C6)cnc43)ccc2cn1)c1cc(F)c2c(c1)S(=O)(=O)[C@@H](F)CCO2 [Compound 130]	15.94	4.5	71.1
COc1cnc2c(c1)OCCN2c1ccc2cnc(CNC(=O)c3cc(F)c4c(c3)S(=O)(=O)[C@@H](F)CCO4)cc2c1 [Compound 153]	13.92	5	69.5
C[C@H]1C[C@@H]1c1ccc2c(n1)N(c1ccc3cnc(CNC(=O)c4cc(F)c5c(c4)S(=O)(=O)[C@@H](F)COC5)cc3n1)CCO2 [Compound 13]	14.77	1.5	24.3
C[C@@H]1CN(c2cccc(-c3ccc4nnc(CNC(=O)c5cc(Cl)c6c(c5)S(=O)(=O)[C@@H](F)CCO6)cc4c3)n2)C[C@H](C)O1 [Compound 231]	14.03	7.2	102
C[C@@H]1CCN1c1cnc2c(c1)CCCN2c1ccc2cnc(CNC(=O)c3cc(F)c4c(c3)S(=O)(=O)[C@@H](F)CCO4)cc2n1 [Compound 236]	21.61	7.4	160
C[C@@H]1CN(c2cncc(-c3ccc4cnc(CNC(=O)c5cc(F)c6c(c5)S(=O)(=O)[C@@H](F)CCO6)cc4c3)n2)C[C@H](C)O1 [Compound 19, (4R)—N-[[6-[6-[(2S,6R)-2,6-dimethylmorpholin-4-yl]pyrazin-2-yl]-3-isoquinolyl]methyl]-4,9-difluoro-5,5-dioxo-3,4-dihydro-2H-1,5λ6-benzoxathiepine-7-carboxamide]	13.20	1.6	20.7
O=C(NCc1cc2nc(N3CCOc4cc([C@@H]5CC5(F)F)cnc43)ccc2cn1)c1cc(F)c2c(c1)S(=O)(=O)[C@@H](F)COC2 [Compound 74]	9.59	2.8	26.7
CCOc1cccc(-c2ccc3cnc(CNC(=O)c4cc(F)c5c(c4)S(=O)(=O)[C@@H](F)CCO5)cc3n2)n1 [Compound 170]	24.59	5.3	122
O=C(NCc1cc2nc(N3CCOc4ccc(C5CC5)nc43)ccc2cn1)c1cc(F)c2c(c1)S(=O)(=O)[C@@H](F)COC2 [Compound 72]	21.76	2.8	66.6
COc1nc(C(C)(F)F)ccc1-c1ccc2cnc(CNC(=O)c3cc(F)c4c(c3)S(=O)(=O)[C@@H](F)CCO4)cc2n1 [Compound 150]	21.42	4.9	119
